# Laboratory results from publication PMC8149581 (Chemistry of Heterocyclic Compounds, 2021).
# Like-named read-outs stand apart in the source and are kept apart here.
# Experiments:
# [1] = tested on: influenza A/Puerto Rico/8/34 (H1N1) virus; assay type: cell-based
# [2] = Simultaneous thermal analysis; assay type: physicochemical
# in vitro = conditions: dog
structure (smiles),measurement,setting,value
"Ic1ccc(-c2nnn(C34CC5CC(CC(C5)C3)C4)n2)cc1 [Compound 3a, 2-(Adamantan-1-yl)-5-(4-iodophenyl)-2 H -tetrazole]",Selectivity index (SI),[1]; ratio of CC50 to IC50,1
"Clc1ccc(-c2nnn(C34CC5CC(CC(C5)C3)C4)n2)cc1 [Compound 3d, 2-(Adamantan-1-yl)-5-(4-chlorophenyl)-2 H -tetrazole]",Selectivity index (SI),[1],2
"O=[N+]([O-])c1cc(-c2nnn(C34CC5CC(CC(C5)C3)C4)n2)ccc1O [Compound 3g, 4-[(2-Adamantan-1-yl)-2 H -tetrazol-5-yl]-2-nitrophenol]",Temperature from which complete decomposition occurs,"[2]; argon flow, heating rate 10°C/min",≥ 250 °C
same,Temperature of release of molecular nitrogen (loss of weight),"[2]; argon flow, heating rate 10°C/min, strong exothermic effect",156.2 °C
same,Loss of mass at complete decomposition,[2]; starting with 250°C,33.6%
"Nc1c(Br)cc([N+](=O)[O-])cc1-c1nnn(C23CC4CC(CC(C4)C2)C3)n1 [Compound 3h, 2-[2-(Adamantan-1-yl)-2 H -tetrazol-5-yl]-6-bromo-4-nitroaniline]",Selectivity index (SI),[1],11
"Nc1cc(-c2nnn(C34CC5CC(CC(C5)C3)C4)n2)ccc1O [Compound 3i, 4-[2-(Adamantan-1-yl)-2 H -tetrazol-5-yl]-2-aminophenol]",Selectivity index (SI),[1],2
"CC(N)C12CC3CC(CC(C3)C1)C2 (stereo not drawn) [Rimantadine, reference compound]",CC50,in vitro,60 ± 4 µg/mL
same,Selectivity index (SI),[1],5
